# Where two headings read alike, the source gives them in different places. *1 amine or outer side, *2 acyl side, *3 side chain or, on linkers, in order; H or OH if unused. Where a SMILES comes first, the peptide text is derived from it. Side-chain parts run from the residue outwards. [ ]: non-standard residue; d: D form. The star is where a group is joined. Biotin = O=C1N[C@H]2[C@H](CS[C@H]2CCCCC(=O)*)N1; Gly(N-(CH2)3-guanidino) = N=C(N)NCCCNCC(=O)O; Glutaryl = O=C(CCCC(=O)[*:2])[*:1]; X4 = O=C(Oc1c(F)c(F)c(F)c(F)c1F)*; X2 = O=C1CCC(=O)N1OC(=O)*; X3 = C#Cc1cccc(N*)c1; Ahx = NCCCCCC(=O)O; X1 = O=C(n1cncn1)*
# Legend:
# [1] = molecular target: T1, human trypsin (Homo sapiens, UniProt P07477); assay: Determination of inhibitor constants against trypsin (progress curves, Cbz-Gly-Gly-Arg-AMC); format: biochemical; settings: for k3: first-order rate constant; for k3/Ki: second-order rate constant
# Experimental: (§1) Recombinant protease activities were assessed using the cognate fluorogenic substrates (final concentration 50 μM) as follows: trypsin (Cbz-Gly-Gly-Arg-AMC), neutrophil elastase (MeO-Suc-Ala-Ala-Pro-Val-AMC) and chymotrypsin (Suc-Ala-Ala-Pro-Phe-AMC). The assay in the presence or absence of protease inhibitors at a range of final concentrations was performed using a standard microtitre plate format. Substrate hydrolysis, at 37°C, was monitored over a 60 min period by measuring the rate of increase in fluorescence (at λex 360 nm, λem 480 nm) using a FLUOstar Optima microplate reader (BMG Labtech).
# A broad range of inhibitor concentrations were prepared from a 10 mM stock solution of the five test compounds (NAP851, NAP966, NAP987, NAP884 and NAP858) in N,N-dimethyformamide (DMF). The fluorogenic substrate, Cbz-Gly-Gly-Arg-AMC, was diluted in assay buffer (PBS, pH 7.4) and used at a fixed concentration of 50 μM. All inhibition assays were performed in microtitre plates maintained at 37°C in a final volume of 100 μL. The reaction was initiated by the addition of human trypsin (0.01 μg/well) and the rate of substrate hydrolysis continuously recorded at λex 360 nm, λem 480 nm using a FLUOstar Optima microplate reader (BMG Labtech). The resultant inhibition progress curve for the putative protease inhibitors were analysed according to the kinetic models developed by Tian and Tsou ([Tian and Tsou, 1982]) and Walker and Elmore ([Walker and Elmore, 1984]), for irreversible inhibitors, using GRAFIT (Erithacus Software) as described previously ([Ferguson et al., 2016]).
# [2] = molecular target: T2, matriptase (Homo sapiens, UniProt Q9Y5Y6); assay: Activity-based probe labelling of matriptase; format: binding; settings: 30 min, 37°C; band at 26 kDa
# T2 construct: purchased R and D Systems
# T2 sequence (Q9Y5Y6 615-855 limits assumed): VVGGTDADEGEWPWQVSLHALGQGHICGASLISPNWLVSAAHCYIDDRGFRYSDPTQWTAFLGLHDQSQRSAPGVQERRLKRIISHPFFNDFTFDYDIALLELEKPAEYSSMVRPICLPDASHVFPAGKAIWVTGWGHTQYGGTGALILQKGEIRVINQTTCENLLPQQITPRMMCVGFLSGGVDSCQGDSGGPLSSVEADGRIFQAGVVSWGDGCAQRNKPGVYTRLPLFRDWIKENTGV
# Experimental: (§2) Samples of recombinant protease (trypsin, human airway trypsin-like protease (HAT), matriptase, thrombin or neutrophil elastase, as indicated in the relevant figure legends) were treated with putative ABPs at a concentration of 50 μM, for 30 min, at 37°C. A control sample was prepared by treating recombinant protease with solvent control only. A further sample was prepared where Cbz-Arg^P(OPh)2 was added 30 min prior to the addition of the ABP under examination. […] All treated samples were then denatured with SDS-containing reducing treatment buffer (10 min at 95°C), followed by resolution by SDS-PAGE and subjected to Western blotting. Note, only stable covalent bonds between the ABP and protease active site would survive the harsh denaturing conditions involved in the resolution process. Resolved proteins were then transferred on to nitrocellulose membrane and labelled with streptavidin-HRP. The ABP-protease complex was then visualised following treatment with Luminata Forte HRP substrate.
# [3] = molecular target: T3, thrombin (Homo sapiens, UniProt P00734); assay: Activity-based probe labelling of thrombin; format: binding; settings: 30 min, 37°C; heavy chain 31 kDa
# T3 construct: purchased R and D Systems
# Experimental: as §2
# [4] = test system: trypsin; assay: Activity-based probe labelling of trypsin (SDS-PAGE, Western blot, streptavidin-HRP); format: binding; settings: probe 50 μM, 30 min, 37°C
# Experimental: as §2
# [5] = test system: chymotrypsin; assay: Off-target fluorogenic substrate assay, chymotrypsin; format: biochemical; settings: for inhibition of chymotrypsin relative to controls: 50 μM (highest concentration tested)
# Experimental: as §1
# [6] = molecular target: T4, neutrophil elastase (Homo sapiens, UniProt P08246); assay: Off-target fluorogenic substrate assay, neutrophil elastase; format: biochemical; settings: 50 μM (highest concentration tested); read-out: inhibition of NE (decrease in activity) relative to controls
# T4 construct: purchased Calbiochem
# T4 sequence (P08246 30-267): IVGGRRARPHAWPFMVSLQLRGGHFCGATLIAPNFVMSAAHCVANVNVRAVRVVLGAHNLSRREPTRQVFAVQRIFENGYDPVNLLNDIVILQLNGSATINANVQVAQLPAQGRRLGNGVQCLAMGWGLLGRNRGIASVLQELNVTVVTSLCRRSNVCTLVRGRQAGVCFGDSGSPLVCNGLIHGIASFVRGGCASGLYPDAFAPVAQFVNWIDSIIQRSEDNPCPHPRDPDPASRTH
# Experimental: as §1
# [7] = test system: trypsin; assay: Off-target fluorogenic substrate assay, trypsin; format: biochemical; settings: across the range of concentrations studied, vs chymotrypsin and NE
# Experimental: as §1
# [8] = test system: trypsin-like proteases in American cockroach extract; assay: ABP of American cockroach extract; format: binding, Periplaneta americana; settings: probe 50 μM, 30 min, 37°C
# Experimental: (§3) Cockroach extract was probed with NAP858 (50 μM) (± heat inactivation at 95°C, for 10 min), for 30 min, at 37°C. Samples were then denatured with SDS-containing reducing treatment buffer (10 min/95°C), followed by resolution by SDS-PAGE and protein transfer unto nitrocellulose membrane which was incubated with streptavidin-HRP (1 in 20,000). The membrane was visualised following treatment with Luminata Forte HRP substrate.
# (§4) Removal of endogenous biotinylated proteins present in the cockroach extract was performed in some experiments to improve clarity of the Western blots obtained. Neutravidin agarose beads were washed three times with 1 ml wash buffer (150 mM NaCl, 50 mM Tris, 1 mM EGTA, 1% (v/v) NP-40, pH 7.4) then resuspended in PBS (pH 7.4). These neutravidin beads were then used to bind and remove (pre-clear) endogenous biotinylated proteins present in the cockroach extract. This involved rotation of the bead-cockroach extract mix at 4°C for 30 min followed by centrifugation to enable collection of the pre-cleared supernatant fraction. The bead fraction containing bound endogenous biotinylated proteins from cockroach extract was discarded. The supernatant was then probed with NAP858 (50 μM) (±Cbz-Arg^P(OPh)2), for 30 min, at 37°C, followed by addition of freshly washed neutravidin agarose beads. […]
# [9] = test system: trypsin-like proteases in German cockroach extract; assay: ABP of German cockroach extract; format: binding, Blattella germanica; settings: probe 50 μM, 30 min, 37°C
# Experimental: as §3, §4
# [10] = molecular target: T5, human airway trypsin-like protease (HAT) (Homo sapiens, UniProt O60235); assay: Activity-based probe labelling of HAT; format: binding; settings: 30 min, 37°C; band at 25 kDa
# T5 construct: purchased R and D Systems
# T5 sequence (O60235 187-418 limits assumed): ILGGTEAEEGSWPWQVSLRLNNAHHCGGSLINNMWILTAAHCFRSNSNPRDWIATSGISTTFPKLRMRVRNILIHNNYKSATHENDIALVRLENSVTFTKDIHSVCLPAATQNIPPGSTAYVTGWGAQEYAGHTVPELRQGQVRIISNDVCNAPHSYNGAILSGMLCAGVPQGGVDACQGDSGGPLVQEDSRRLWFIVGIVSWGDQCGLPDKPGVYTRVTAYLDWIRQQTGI
# T5 sequence (O60235 44-186 partner limits assumed): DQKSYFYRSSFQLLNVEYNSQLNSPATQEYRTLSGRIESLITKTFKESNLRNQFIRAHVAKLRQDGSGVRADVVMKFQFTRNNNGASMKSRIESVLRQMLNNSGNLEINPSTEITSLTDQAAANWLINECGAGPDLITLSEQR
# Experimental: as §2
# [11] = test system: trypsin; assay: Click chemistry labelling of trypsin with rhodamine-azide; format: binding; settings: trypsin 1 μg
# Experimental: (§5) Samples pre-treated with competitive inhibitor (Cbz-Arg^P(OPh)2 for trypsin and Cbz-Val^P(OPh)2 for neutrophil elastase) for 30 min prior to addition of NAP884, were included for comparison. Following treatment with NAP884, DMSO (25% v/v final concentration), rhodamine-X azide (60 µM final concentration), copper (II)-TBTA complex (1 mM final concentration) and freshly prepared sodium ascorbate (1 mM final concentration) were added. The samples were mixed and incubated at room temperature in the dark for 1 h with gentle agitation. Samples were then denatured with SDS-containing reducing treatment buffer (10 min at 95°C), followed by resolution by SDS-PAGE and visualisation under UV light.
# [12] = molecular target: T4, neutrophil elastase; assay: Click chemistry labelling of neutrophil elastase with rhodamine-azide; format: binding; settings: NE 1 μg, 30 min, 37°C
# Experimental: as §5, with “Samples of recombinant protease (trypsin and neutrophil elastase) were treated with alkyne-containing probe NAP884 at a concentration of 50 μM, for 30 min at 37°C. Samples pre-treated” for “Samples pre-treated”
# [13] = molecular target: T1, human trypsin; set-up: method as in PMID 10611275; settings: ref [30]; cited from earlier work
# [14] = molecular target: T2, matriptase; set-up: method as in Reihill et al., 2016; settings: in words; ref Reihill et al., 2016; cited from earlier work
# [15] = test system: HAT; set-up: method as in Reihill et al., 2016; settings: in words; ref Reihill et al., 2016; cited from earlier work
# [16] = PBS pH 7.4, 37°C, 50 μM Cbz-Gly-Gly-Arg-AMC, ±S.E.M., three determinations, read-out: Ki
# [17] = PBS pH 7.4, 37°C, ±S.E.M., three determinations
"Ki [1, 16]","k3 [1, 17]","k3/Ki [1, 17]",inhibition at 50 µM [6],Compound,labelling of trypsin [4],inhibition of chymotrypsin relative to controls [5],selectivity of action for trypsin [7],also measured
7560 nM,0.160 (±0.020) min^−1,2.46 (±0.858) x 10^4 M^−1 min^−1,–,N=C(N)NCCCN(CC(=O)NCC(=O)NCC(=O)NCCCCCC(=O)N[C@@H](CCCCNC(=O)CCCC[C@@H]1SC[C@@H]2NC(=O)N[C@@H]21)C(=O)O)C(=O)n1cncn1 [NAP851] (X1-[Gly(N-(CH2)3-guanidino)]GG[Ahx]K(Biotin)-OH; N-terminus assumed),–,–,–,"substrate turnover at prolonged incubation ([1]; progress curves, 60 min incubation): slight increase in fluorescence, due to residual substrate turnover; Ki ([1]; read-out: Ki): ~7600 nM; k3/Ki fold smaller than NAP858 ([1]; trypsin): ~8 fold; k3/Ki fold smaller than NAP897/NAP884 ([1]; trypsin): ~4 fold; k3/Ki fold smaller than NAP966 ([1]; trypsin): ~6 fold"
420 nM,0.528 (±0.064) min^−1,1.34 (±0.351) x 10^6 M^−1 min^−1,~50%,C#Cc1cccc(NC(=O)CCCC(=O)NCCCC[C@H](NC(=O)CCCCCNC(=O)CNC(=O)CNC(=O)CN(CCCNC(=N)N)C(=O)ON2C(=O)CCC2=O)C(=O)O)c1 [NAP884] (X2-[Gly(N-(CH2)3-guanidino)]GG[Ahx]K([Glutaryl-X3])-OH),–,–,pronounced selectivity of action in inhibiting trypsin,detection of trypsin ([11]; probe 1 μM): not detectable; detection of trypsin ([11]; probe 10 μM): enabled the detection of trypsin; detection of trypsin ([11]; probe 50 μM): enabled the detection of trypsin; inhibitory behaviour against chymotrypsin ([5]; in words): similarly discriminating inhibitory behaviour against trypsin compared to chymotrypsin; labelling of NE [12]: complete absence of labelling of NE
663 nM,0.741 (±0.225) min^−1,1.35 (±0.376) x 10^6 M^−1 min^−1,< 10%,N=C(N)NCCCN(CC(=O)NCC(=O)NCC(=O)NCCCCCC(=O)N[C@@H](CCCCNC(=O)CCCC[C@@H]1SC[C@@H]2NC(=O)N[C@@H]21)C(=O)O)C(=O)ON1C(=O)CCC1=O [NAP897] (X2-[Gly(N-(CH2)3-guanidino)]GG[Ahx]K(Biotin)-OH),labelling of a single protein band corresponding to the correct molecular mass of trypsin,< 10%,pronounced selectivity of action in inhibiting trypsin,–
–,–,–,–,N=C(N)NCCC[C@H](NC(=O)CCC(=O)NCCCOCCOCCOCCCNC(=O)CCCC[C@@H]1SC[C@@H]2NC(=O)N[C@@H]21)P(=O)(Oc1ccccc1)Oc1ccccc1 [QUB-TL1],–,–,–,Ki [13]: 174 nM; k3 [13]: 0.284 min⁻¹; k3/Ki [13]: 27300 M⁻¹ s⁻¹; inhibition of matriptase [14]: potent inhibitor; inhibition of HAT [15]: potent inhibitor

Compound,"Ki [1, 16]","k3 [1, 17]","k3/Ki [1, 17]",inhibition at 50 µM [6],labelling of trypsin [4],inhibition of chymotrypsin relative to controls [5],selectivity of action for trypsin [7],also measured
N=C(N)NCCCN(CC(=O)NCC(=O)NCC(=O)NCCCOCCOCCOCCCNC(=O)CCCC[C@@H]1SC[C@@H]2NC(=O)N[C@@H]21)C(=O)ON1C(=O)CCC1=O [NAP858],226 nM,0.473 (±0.101) min^−1,2.06 (±0.884) x 10^6 M^−1 min^−1,< 10%,labelling of a single protein band corresponding to the correct molecular mass of trypsin,< 10%,pronounced selectivity of action in inhibiting trypsin,"labelling of matriptase [2]: does indeed function as an AP for both proteases; labelling of thrombin [3]: can act as an AP for thrombin; bands detected in American cockroach extract [8]: single, intense band with an apparent molecular mass of 25 kDa; bands detected in B. germanica extract [9]: close doublet of protein bands of similar molecular mass (≈25 kDa); labelling of HAT [10]: does indeed function as an AP for both proteases"
N=C(N)NCCCN(CC(=O)NCC(=O)NCC(=O)NCCCCCC(=O)N[C@@H](CCCCNC(=O)CCCC[C@@H]1SC[C@@H]2NC(=O)N[C@@H]21)C(=O)O)C(=O)Oc1c(F)c(F)c(F)c(F)c1F [NAP966] (X4-[Gly(N-(CH2)3-guanidino)]GG[Ahx]K(Biotin)-OH),–,0.401 (±0.007) min^−1,1.92 (±0.250) x 10^5 M^−1 min^−1,–,–,–,–,"Ki ([1]; Ki): ~2100 nM; Ki ([1]; Ki, PBS pH 7.4, 37°C, 50 μM Cbz-Gly-Gly-Arg-AMC, ±S.E.M., three determinations): 2120 nM"

# — publication PMC9068901, “Novel Inhibitors and Activity-Based Probes Targeting Trypsin-Like Serine Proteases” (Frontiers in Chemistry, 2022)
